The values that follow come from US11466016B2, “Pharmaceutical compounds” (priority 2018, dated 2022).

Structures can show the parent of a compound that is named as a salt.

SHP2, sequence (Q06124 whole entry): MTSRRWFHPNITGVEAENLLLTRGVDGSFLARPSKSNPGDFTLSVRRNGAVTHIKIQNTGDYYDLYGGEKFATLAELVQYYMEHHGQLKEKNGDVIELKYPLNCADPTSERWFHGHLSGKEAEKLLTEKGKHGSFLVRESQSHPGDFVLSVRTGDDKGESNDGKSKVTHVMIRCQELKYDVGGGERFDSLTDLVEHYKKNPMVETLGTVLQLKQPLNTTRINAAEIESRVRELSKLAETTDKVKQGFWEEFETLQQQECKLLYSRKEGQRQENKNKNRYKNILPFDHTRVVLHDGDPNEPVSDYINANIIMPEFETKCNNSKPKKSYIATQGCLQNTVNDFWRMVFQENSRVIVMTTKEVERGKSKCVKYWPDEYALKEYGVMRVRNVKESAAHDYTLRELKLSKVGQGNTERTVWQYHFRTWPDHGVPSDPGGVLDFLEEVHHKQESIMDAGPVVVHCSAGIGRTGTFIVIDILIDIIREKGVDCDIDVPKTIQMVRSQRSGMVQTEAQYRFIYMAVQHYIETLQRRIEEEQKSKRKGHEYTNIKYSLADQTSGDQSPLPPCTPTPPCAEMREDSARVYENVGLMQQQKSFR

The first assay has as its target SHP2 (Homo sapiens (Human), UniProt Q06124). Description: SHP2 Biochemical Assay (DiFMUP conversion, pIRS1 activating peptide).
Conditions: not given
Here is the method: SHP2 activity was monitored by measuring the conversion of the surrogate substrate 6,8-difluoromethylumbelliferyl phosphate (DiFMUP) to the fluorescent product, 6,8-difluoromethylumbelliferone (DiFMU).
SHP2 was pre-incubated with test compounds and the activating peptide pIRS1 (H2N-LN(pY)IDLDLV-(PEG)8-LST(pY)ASINFQK-amide) for 30 min, prior to addition of the […] (DiFMUP), (Thermo Fisher D6567). […] Rates of reaction were then measured over 30 min by monitoring fluorescence on a BMG Pherastar reader at excitation 360 nm/emission 450 nm. IC50 values were calculated from the normalized dose-response plots using four parameter logistic curve fit.
Take `N[C@H]1C[C@H]2CC[C@@H](C1)N2c1cnc2c(-c3ccc4nc(C5CCOC5)sc4c3Cl)c[nH]c2n1` (stereo partly drawn) [Example 39, endo-8-{7-[7-chloro-2-(oxolan-3-yl)-1,3-benzothiazol-6-yl]-5H-pyrrolo[2,3-b]pyrazin-3-yl}-8-azabicyclo[3.2.1]octan-3-amine, dihydrochloride salt]: the IC50 (as a rule, the point on the concentration scale where inhibition reaches its midpoint) is 6.9 nM.

`Cc1nc2ccc(-c3c[nH]c4nc(N5[C@@H]6CC[C@H]5C[C@@H](N)C6)cnc34)c(Cl)c2c(=O)n1C` [Example 52, 6-{3-[endo-3-amino-8-azabicyclo[3.2.1]octan-8-yl]-5H-pyrrolo[2,3-b]pyrazin-7-yl}-5-chloro-2,3-dimethyl-3,4-dihydroquinazolin-4-one, methanesulfonic acid salt] had an IC50 of 13 nM.

Staying with this assay, now noted: DiFMUP substrate, 0.25 μM pIRS1 peptide, 30 min pre-incubation; average where more than one data point; read-out: SHP2 (IC50).
Take `Cn1cc2c(Cl)c(-c3c[nH]c4nc(N5CCC6(CNC6)C(F)(F)C5)cnc34)ccc2n1` [Example 25, 7-[7-(4-chloro-2-methyl-2H-indazol-5-yl)-5H-pyrrolo[2,3-b]pyrazin-3-yl]-5,5-difluoro-2,7-diazaspiro[3.5]nonane, hydrochloride salt]: the IC50 turned out to be 52 nM.

With `CCn1cc2c(Cl)c(-c3c[nH]c4nc(N5[C@@H]6CC[C@H]5C[C@@H](N)C6)cnc34)ccc2n1` [Example 26, endo-8-[7-(4-chloro-2-ethyl-2H-indazol-5-yl)-5H-pyrrolo[2,3-b]pyrazin-3-yl]-8-azabicyclo[3.2.1]octan-3-amine, hydrochloride salt], the IC50 came out at 14 nM.

For the compound `CCn1cc2c(Cl)c(-c3c[nH]c4nc(N5[C@@H]6CC[C@H]5C[C@H](N)C6)cnc34)ccc2n1` [Example 28, exo-8-[7-(4-chloro-2-ethyl-2H-indazol-5-yl)-5H-pyrrolo[2,3-b]pyrazin-3-yl]-8-azabicyclo[3.2.1]octan-3-amine, hydrochloride salt], the IC50 stood at 9.6 nM.

Take `Cn1cc2c(Cl)c(-c3c[nH]c4nc(N5CC[C@@H](N)[C@H](F)C5)cnc34)ccc2n1` [Example 29, (3R,4R)-1-[7-(4-chloro-2-methyl-2H-indazol-5-yl)-5H-pyrrolo[2,3-b]pyrazin-3-yl]-3-fluoropiperidin-4-amine, hydrochloride salt]: the IC50 was determined as 41 nM.

In the case of `Cn1cc2c(Cl)c(-c3c[nH]c4nc(N5CC[C@H](N)[C@@H](F)C5)cnc34)ccc2n1` [Example 30, (3S,4S)-1-[7-(4-chloro-2-methyl-2H-indazol-5-yl)-5H-pyrrolo[2,3-b]pyrazin-3-yl]-3-fluoropiperidin-4-amine, hydrochloride salt], the IC50 came out at 150 nM.

As to `Cn1cc2c(Cl)c(-c3c[nH]c4nc(N5CC[C@H](N)[C@@H](O)C5)cnc34)ccc2n1` [Example 31, (3S,4S)-4-amino-1-[7-(4-chloro-2-methyl-2H-indazol-5-yl)-5H-pyrrolo[2,3-b]pyrazin-3-yl]piperidin-3-ol, hydrochloride salt], the 50% inhibitory concentration (IC50) was 22 nM.

For `Cn1cc2c(Cl)c(-c3c[nH]c4nc(N5CC[C@@H](N)[C@@H](F)C5)cnc34)ccc2n1` [Example 32, (3S,4R)-1-[7-(4-chloro-2-methyl-2H-indazol-5-yl)-5H-pyrrolo[2,3-b]pyrazin-3-yl]-3-fluoropiperidin-4-amine, hydrochloride salt], the IC50 is 56 nM.

As to `Cn1cc2c(Cl)c(-c3c[nH]c4nc(N5CC[C@H](N)[C@H](F)C5)cnc34)ccc2n1` [Example 33, (3R,4S)-1-[7-(4-chloro-2-methyl-2H-indazol-5-yl)-5H-pyrrolo[2,3-b]pyrazin-3-yl]-3-fluoropiperidin-4-amine, hydrochloride salt], the IC50 was found to be 33 nM.

Turning to `Cn1cc2c(Cl)c(-c3c[nH]c4nc(N5[C@@H]6CC[C@H]5C[C@@H](N)C6)c(CO)nc34)ccc2n1` [Example 34, {3-[endo-3-amino-8-azabicyclo[3.2.1]octan-8-yl]-7-(4-chloro-2-methyl-2H-indazol-5-yl)-5H-pyrrolo[2,3-b]pyrazin-2-yl}methanol, hydrochloride salt], the IC50 was 13 nM.

With `N[C@H]1C[C@H]2CC[C@@H](C1)N2c1cnc2c(-c3ccc4ccc(=O)[nH]c4c3Cl)c[nH]c2n1` [Example 35, 7-{3-[endo-3-amino-8-azabicyclo[3.2.1]octan-8-yl]-5H-pyrrolo[2,3-b]pyrazin-7-yl}-8-chloro-1,2-dihydroquinolin-2-one, hydrochloride salt], the IC50 is 190 nM.

Consider `Cn1nc2ccc(-c3c[nH]c4nc(N5[C@@H]6CC[C@H]5C[C@@H](N)C6)cnc34)c(Cl)c2c1CO` [Example 37, (5-{3-[endo-3-amino-8-azabicyclo[3.2.1]octan-8-yl]-5H-pyrrolo[2,3-b]pyrazin-7-yl}-4-chloro-2-methyl-2H-indazol-3-yl)methanol, methanesulfonic acid salt], for which the IC50 came to 51 nM.

Turning to `Cn1cc2c(F)c(-c3c[nH]c4nc(N5[C@@H]6CC[C@H]5C[C@@H](N)C6)cnc34)ccc2n1` [Example 38, endo-8-[7-(4-fluoro-2-methyl-2H-indazol-5-yl)-5H-pyrrolo[2,3-b]pyrazin-3-yl]-8-azabicyclo[3.2.1]octan-3-amine], the IC50 came out at 53 nM.

As to `Cc1nc2c(-c3ccc4nn(C)cc4c3Cl)n[nH]c2nc1N1[C@@H]2CC[C@H]1C[C@H](N)C2` [Example 40, exo-8-[3-(4-chloro-2-methyl-2H-indazol-5-yl)-5-methyl-1H-pyrazolo[3,4-b]pyrazin-6-yl]-8-azabicyclo[3.2.1]octan-3-amine, dihydrochloride salt], the IC50 worked out at 10 nM.

With `Cn1nc2ccc(-c3c[nH]c4nc(N5[C@@H]6CC[C@H]5C[C@H](N)C6)cnc34)c(Cl)c2c1Cl` [Example 41, exo-8-[7-(3,4-dichloro-2-methyl-2H-indazol-5-yl)-5H-pyrrolo[2,3-b]pyrazin-3-yl]-8-azabicyclo[3.2.1]octan-3-amine, hydrochloride salt], the concentration for half-maximal inhibition (IC50) was 3.6 nM.

Regarding `COCc1nc2ccc(-c3c[nH]c4nc(N5[C@@H]6CC[C@H]5C[C@@H](N)C6)cnc34)c(Cl)c2s1` [Example 43, endo-8-{7-[7-chloro-2-(methoxymethyl)-1,3-benzothiazol-6-yl]-5H-pyrrolo[2,3-b]pyrazin-3-yl}-8-azabicyclo[3.2.1]octan-3-amine, hydrochloride salt], the IC50 came out at 5.8 nM.

Take `N[C@H]1C[C@H]2CC[C@@H](C1)N2c1cnc2c(-c3ccc4nc(CO)sc4c3Cl)c[nH]c2n1` [Example 44, (6-{3-[endo-3-amino-8-azabicyclo[3.2.1]octan-8-yl]-5H-pyrrolo[2,3-b]pyrazin-7-yl}-7-chloro-1,3-benzothiazol-2-yl)methanol, hydrochloride salt]: the IC50 worked out at 6.8 nM.

Consider `Cc1nc2c(-c3ccc4nn(C)cc4c3Cl)[nH]nc2nc1N1[C@@H]2CC[C@H]1CC(N)C2` (stereo partly drawn) [Example 48, endo-8-[3-(4-Chloro-2-methyl-2H-indazol-5-yl)-5-methyl-1H-pyrazolo[3,4-b]pyrazin-6-yl]-8-azabicyclo[3.2.1]octan-3-amine, hydrochloride salt], for which the IC50 worked out at 17 nM.

With `CN(C)C(=O)Cn1cc2c(Cl)c(-c3c[nH]c4nc(N5[C@@H]6CC[C@H]5C[C@@H](N)C6)cnc34)ccc2n1` [Example 49, 2-(5-{3-[endo-3-amino-8-azabicyclo[3.2.1]octan-8-yl]-5H-pyrrolo[2,3-b]pyrazin-7-yl}-4-chloro-2H-indazol-2-yl)-N,N-dimethylacetamide], the half-inhibitory concentration (IC50) came out at 15 nM.

Consider `Cn1cc2c(Cl)c(-c3c[nH]c4nc(N5[C@@H]6CC[C@H]5C[C@@H](N)C6)cnc34)cc(F)c2n1` [Example 50, endo-8-[7-(4-chloro-7-fluoro-2-methyl-2H-indazol-5-yl)-5H-pyrrolo[2,3-b]pyrazin-3-yl]-8-azabicyclo[3.2.1]octan-3-amine], for which the IC50 stood at 31 nM.

For `Cn1nc2ccc(-c3c[nH]c4nc(N5[C@@H]6CC[C@H]5C[C@@H](N)C6)cnc34)c(Cl)c2n1` [Example 51, endo-8-[7-(4-chloro-2-methyl-2H-1,2,3-benzotriazol-5-yl)-5H-pyrrolo[2,3-b]pyrazin-3-yl]-8-azabicyclo[3.2.1]octan-3-amine], the IC50 amounted to 29 nM.

`CC(C)(O)Cn1cc2c(Cl)c(-c3c[nH]c4nc(N5[C@@H]6CC[C@H]5C[C@@H](N)C6)cnc34)ccc2n1` [Example 53, 1-(5-{3-[endo-3-amino-8-azabicyclo[3.2.1]octan-8-yl]-5H-pyrrolo[2,3-b]pyrazin-7-yl}-4-chloro-2H-indazol-2-yl)-2-methylpropan-2-ol]: the IC50 was found to be 29 nM.

Regarding `N[C@H]1C[C@H]2CC[C@@H](C1)N2c1cnc2c(-c3ccc4[nH]nc(Cl)c4c3Cl)c[nH]c2n1` [Example 54, endo-8-[7-(3,4-dichloro-1H-indazol-5-yl)-5H-pyrrolo[2,3-b]pyrazin-3-yl]-8-azabicyclo[3.2.1]octan-3-amine], the IC50 is 10 nM.

Take `Cc1cc(-c2c[nH]c3nc(N4[C@@H]5CC[C@H]4C[C@@H](N)C5)cnc23)c(Cl)c2cn(C)nc12` [Example 55, endo-8-[7-(4-chloro-2,7-dimethyl-2H-indazol-5-yl)-5H-pyrrolo[2,3-b]pyrazin-3-yl]-8-azabicyclo[3.2.1]octan-3-amine]: the IC50 came to 22 nM.

Consider `Cn1cnc2ccc(-c3c[nH]c4nc(N5[C@@H]6CC[C@H]5C[C@@H](N)C6)cnc34)c(Cl)c2c1=O` [Example 56, 6-{3-[endo-3-amino-8-azabicyclo[3.2.1]octan-8-yl]-5H-pyrrolo[2,3-b]pyrazin-7-yl}-5-chloro-3-methyl-3,4-dihydroquinazolin-4-one, hydrochloride salt], for which the IC50 worked out at 21 nM.

Regarding `CNC(=O)Cn1cc2c(Cl)c(-c3c[nH]c4nc(N5[C@@H]6CC[C@H]5C[C@@H](N)C6)cnc34)ccc2n1` [Example 57, 2-(5-{3-[endo-3-amino-8-azabicyclo[3.2.1]octan-8-yl]-5H-pyrrolo[2,3-b]pyrazin-7-yl}-4-chloro-2H-indazol-2-yl)-N-methylacetamide], the IC50 amounted to 23 nM.
